Measured values reported in patent US12453769B2 (priority 2019, dated 2025).

System: gE-specific IFN-γ
Parameters: species or system C57BL/6(N) mice
Details: mouse, in vivo

QS-21 was tested, and the “induced production level of gE-specific IFN-γ (ELISPOT spot)” value was “the best effect”.
